We go through 30 molecules from ChEMBL document CHEMBL3861984, “Synthesis and evaluation of 2,5 and 2,6 pyridine-based CXCR4 inhibitors” (Bioorg Med Chem, 2016).

The target in data set [1] is T1, C-X-C chemokine receptor type 4 (Homo sapiens, UniProt P61073). The data set can be described thus: Displacement of biotinylated-TN14003 from CXCR4 in human MDA-MB-231 cells assessed as reduction in fluorescence preincubated for 10 mins followed by biotinylated-TN14003 addition measured after 30 mins by streptavidin-rhodamine staining based microscopic analysis. The data set is classed as cell-based.

The test system of data set [2] is Mus musculus. The data set can be described thus: Toxicity in carrageenan-induced paw edema C57BL/6J mouse model assessed as mortality at 10 mg/kg administered 30 mins after carrageenan challenge and then once daily following initial dose measured 74 hrs post inflammation induction and 2 hrs post last dose. Type of data set: organism-based. The conditions noted are these: in vivo. Background: In the carrageenan paw model, swelling and tenderness develop within hours.

Data set [3] deals with T1, C-X-C chemokine receptor type 4. Kind of data set: Inhibition of CXCR4/CXCL12 interaction-mediated chemotaxis in human MDA-MB-231 cells assessed as inhibition of cell invasion at 100 nM after 22 hrs by hematoxylin/eosin dye-based matrigel assay relative to control.
In data set [4] the test system is Mus musculus. Kind of data set: Anti-inflammatory activity in C57BL/6J mouse assessed as suppression of carrageenan-induced paw edema at 10 mg/kg administered 30 mins after carrageenan challenge and then once daily following initial dose measured 74 hrs post inflammation induction and 2 hrs post last dose relative to control. The data set is classed as functional.

Data set [5] deals with Mus musculus. Kind of data set: Antiinflammatory activity in C57BL/6J mouse paw assessed as reduction in carrageenan-induced paw edema volume at 10 mg/kg administered 30 mins after carrageenan challenge and then once daily following initial dose measured 74 hrs post inflammation induction and 2 hrs post last dose by hematoxylin and eosin-staining based assay. Type of data set: functional, organism-based.

Active and inactive are the calls of the source. The rule behind the calls is not given here.

T1 sequence (P61073 whole entry): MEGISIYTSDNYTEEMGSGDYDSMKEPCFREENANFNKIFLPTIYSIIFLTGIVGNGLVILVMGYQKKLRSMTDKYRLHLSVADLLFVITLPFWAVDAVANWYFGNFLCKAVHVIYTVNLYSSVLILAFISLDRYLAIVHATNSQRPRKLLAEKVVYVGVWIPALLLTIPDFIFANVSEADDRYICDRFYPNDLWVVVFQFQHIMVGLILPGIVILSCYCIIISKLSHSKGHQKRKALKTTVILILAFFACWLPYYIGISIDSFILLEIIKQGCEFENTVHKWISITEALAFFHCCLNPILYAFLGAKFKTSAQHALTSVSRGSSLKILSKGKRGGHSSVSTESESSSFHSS

Consider `Fc1ccccc1NCc1cccc(CNc2ccccc2F)n1`, for which the EC in data set [1] is 1000 nM.

As for `FC(F)(F)c1ccccc1NCc1cccc(CNc2ccccc2C(F)(F)F)n1`, the EC in data set [1] was more than 1000 nM.

For the molecule `COc1cccc(NCc2cccc(CNc3cccc(OC)c3)n2)c1`, in the data set with Mus musculus [2], the Activity result is reported as “Non-Toxic”. The EC in data set [1] was 100 nM. Moreover, in data set [3], the inhibition (in general, the relative decrease from the control value, in per cent) worked out at 37%. The inhibition in vivo (in general, how much of the control response was suppressed) at 10 mg/kg with Mus musculus [4] amounted to 20.1%.

In the case of `CCc1ccccc1NCc1cccc(CNc2ccccc2CC)n1`, the Activity entry in the data set on Mus musculus [2] is recorded as “Non-Toxic”. Further, the EC in data set [1] worked out at 1 nM. Moreover, the inhibition in data set [3] amounted to 59%. The inhibition in vivo at 10 mg/kg with Mus musculus [4] was 18.1%.

Regarding `Fc1cccc(NCc2cccc(CNc3cccc(F)c3)n2)c1`, in the data set with Mus musculus [2], the Activity entry is on record as “Non-Toxic”. Moreover, the result in the data set with Mus musculus [5] was Active. The EC in data set [1] was 10 nM. In addition, the inhibition in data set [3] was 50%. For the same molecule, in the data set on Mus musculus [4], the inhibition in vivo at 10 mg/kg turned out to be 20.3%.

With `COc1ccccc1NCc1cccc(CNc2ccccc2OC)n1`, the EC in data set [1] amounted to 1000 nM. The inhibition in data set [3] was found to be 0%.

For the molecule `Cc1cccc(NCc2cccc(CNc3cccc(C)c3)n2)c1`, the Activity result in the data set on Mus musculus [2] was “Non-Toxic”. Moreover, in data set [1], the EC amounted to 100 nM. In addition, the inhibition in data set [3] came to 60%. In addition, in the data set with Mus musculus [4], the inhibition in vivo at 10 mg/kg is 20.2%.

`FC(F)(F)c1ccc(NCc2cccc(CNc3ccc(C(F)(F)F)cc3)n2)cc1`: the Activity result in the data set on Mus musculus [2] is reported as “Non-Toxic”. For the same molecule, the EC in data set [1] came to 1 nM. Further, in data set [3], the inhibition was found to be 52%. Also, the inhibition in vivo at 10 mg/kg in the data set on Mus musculus [4] is 20.3%.

For `O=[N+]([O-])c1ccc(NCc2cccc(CNc3ccc([N+](=O)[O-])cc3)n2)cc1`, in data set [1], the EC is more than 1000 nM.

For `CSc1ccc(NCc2cccc(CNc3ccc(SC)cc3)n2)cc1`, the EC in data set [1] was more than 1000 nM.

Regarding `Clc1ccc(NCc2cccc(CNc3ccc(Cl)cc3)n2)cc1`, the EC in data set [1] came out at 100 nM. In data set [3], the inhibition amounted to 21%.

As to `Clc1ccccc1NCc1cccc(CNc2ccccc2Cl)n1`, the EC in data set [1] was more than 1000 nM.

For `O=[N+]([O-])c1cccc(NCc2cccc(CNc3cccc([N+](=O)[O-])c3)n2)c1`, the EC in data set [1] was more than 1000 nM.

`COc1ccc(NCc2cccc(CNc3ccc(OC)cc3)n2)cc1`: in data set [1], the EC is 100 nM. The inhibition in data set [3] worked out at 5%.

For `CCc1cccc(NCc2cccc(CNc3cccc(CC)c3)n2)c1`, the EC in data set [1] was 1000 nM.

As to `c1cc(CN2CCOCC2)nc(CN2CCOCC2)c1`, the Activity entry in the data set with Mus musculus [2] is “Non-Toxic”. In addition, in data set [1], the EC was 10 nM and the half-inhibitory concentration (IC50) (usually the concentration at which inhibition is half-maximal) is 35.7 nM. In data set [3], the inhibition is 63%. Moreover, the inhibition in vivo at 10 mg/kg with Mus musculus [4] was found to be 39.1%.

For `Fc1ccc(CNc2ccc(NCc3ccc(F)cc3)nc2)cc1`, the EC in data set [1] was more than 1000 nM.

Regarding `FC(F)(F)c1cccc(NCc2cccc(CNc3cccc(C(F)(F)F)c3)n2)c1`, in data set [1], the EC came out at 1000 nM. For the same molecule, the inhibition in data set [3] was 15%.

For the molecule `CCOc1ccc(CNc2ccc(NCc3ccc(OCC)cc3)nc2)cc1`, the Activity result in the data set with Mus musculus [2] is given as “Non-Toxic”. In data set [1], the EC came to 100 nM. Besides, the inhibition in data set [3] was determined as 60%.

For the molecule `Cc1ccc(NCc2cccc(CNc3ccc(C)cc3)n2)cc1`, the EC in data set [1] was found to be 1000 nM.

Take `CCc1ccc(NCc2cccc(CNc3ccc(CC)cc3)n2)cc1`: the Activity entry in the data set on Mus musculus [2] is “Non-Toxic”. For the same molecule, in data set [1], the EC was determined as 1 nM and the concentration for half-maximal inhibition (IC50) was found to be 19.6 nM. The inhibition in data set [3] worked out at 64%. For the same molecule, in the data set with Mus musculus [4], the inhibition in vivo at 10 mg/kg is 42%.

As to `c1ccc(NCc2cccc(CNc3ccccc3)n2)cc1`, the EC in data set [1] worked out at 100 nM. The inhibition in data set [3] is less than 1%.

Consider `COc1ccc(CNc2ccc(NCc3ccc(OC)cc3)nc2)cc1`, for which the EC in data set [1] worked out at 1000 nM.

With `Fc1ccc(NCc2cccc(CNc3ccc(F)cc3)n2)cc1`, the EC in data set [1] was 100 nM. For the same molecule, in data set [3], the inhibition was 5%.

Turning to `Clc1cccc(NCc2cccc(CNc3cccc(Cl)c3)n2)c1`, the EC in data set [1] turned out to be 100 nM. Further, the inhibition in data set [3] was found to be 34%.

Regarding `Cc1ccccc1NCc1cccc(CNc2ccccc2C)n1`, the EC in data set [1] was more than 1000 nM.

For `Cc1cccc(NCc2ccc(CNc3cccc(C)c3)nc2)c1`, the Activity result in the data set with Mus musculus [2] is listed as “Non-Toxic”. The EC in data set [1] was determined as 1 nM. For the same molecule, the inhibition in data set [3] came to 58%.

Regarding `Fc1cccc(NCc2ccc(CNc3cccc(F)c3)nc2)c1`, the EC in data set [1] was 1000 nM.

In the case of `Clc1cccc(CNc2ccc(NCc3cccc(Cl)c3)nc2)c1`, in data set [1], the EC was found to be 1000 nM.

Turning to `COc1ccccc1NCc1ccc(CNc2ccccc2OC)nc1`, the EC in data set [1] was determined as 100 nM. In data set [3], the inhibition was less than 5%.
